The record followed here is ChEMBL document CHEMBL4393679, “Structure-Guided Drug Design of 6-Substituted Adenosine Analogues as Potent Inhibitors of Mycobacterium tuberculosis Adenosine Kinase” (J Med Chem, 2019).

Calls of active or inactive are those of the source. No cut-off for these calls is given here.

Data set [1] deals with Adenosine kinase (Mycobacterium tuberculosis (strain ATCC 25618 / H37Rv)) (UniProt P9WID5). The experiment in a line: Inhibition of wild-type N-terminal TEV cleavage site-fused/His-tagged Mycobacterium tuberculosis H37Rv adenosine kinase expressed in Escherichia coli BL21 (DE3) at 12.5 uM using adenosine as substrate in presence of ATP and PEP by pyruvate kinase-lactate dehydrogenase coupled UV-vis spectrophotometric method relative to control.

Data set [2] is described as follows: Toxicity in ND4 Swiss Webster mouse at 50 to 200 mg/kg, po administered once daily via gavage for 3 days measured twice daily during compound dosing. The format is organism-based. The conditions noted are these: in vivo, 72 h.
Data set [3] in a line: Toxicity in ND4 Swiss Webster mouse assessed as change in body weight at 50 to 200 mg/kg, po administered once daily via gavage for 3 days measured twice daily during compound dosing. The data set is classed as organism-based. Conditions: in vivo, 72 h.
For data set [4], the target named is Adenosine kinase (Mycobacterium tuberculosis (strain ATCC 25618 / H37Rv)) (UniProt P9WID5). The experiment in a line: Competitive-inhibition of wild-type N-terminal TEV cleavage site-fused/His-tagged Mycobacterium tuberculosis H37Rv adenosine kinase expressed in Escherichia coli BL21 (DE3) using varying levels of adenosine as substrate in presence of ATP and PEP by pyruvate kinase-lactate dehydrogenase-coupled UV-vis spectrophotometric based Cheng-Prusoff equation analysis.

Data set [5] can be described thus: Toxicity in ND4 Swiss Webster mouse at 10 mg/kg, po administered as single dose via gavage. The format is organism-based. The conditions noted are these: in vivo.

Adenosine kinase (Mycobacterium tuberculosis (strain ATCC 25618 / H37Rv)), sequence (P9WID5 2-324 limits assumed): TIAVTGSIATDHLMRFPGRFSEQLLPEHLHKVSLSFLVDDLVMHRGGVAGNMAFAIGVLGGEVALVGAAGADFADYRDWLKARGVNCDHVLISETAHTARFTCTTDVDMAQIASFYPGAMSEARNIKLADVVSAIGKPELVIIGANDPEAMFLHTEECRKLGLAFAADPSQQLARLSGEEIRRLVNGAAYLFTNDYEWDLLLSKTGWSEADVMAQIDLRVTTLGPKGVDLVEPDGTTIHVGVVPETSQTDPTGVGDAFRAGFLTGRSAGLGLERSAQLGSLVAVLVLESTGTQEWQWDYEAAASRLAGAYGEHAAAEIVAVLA

Broadly, the inhibition is the percentage by which the read-out fell short of the control. As to `Cc1ccc(S(=O)(=O)NC[C@H]2O[C@@H](n3cnc4c(N5CCN(c6ccc(C(F)(F)F)cc6)CC5)ncnc43)[C@H](O)[C@@H]2O)cc1`, the inhibition in data set [1] stood at 53%.
Take `OC[C@H]1O[C@@H](n2cnc3c(N4CCN(c5ccc(-c6ccccc6)cc5)CC4)ncnc32)[C@H](O)[C@@H]1O`: the Activity entry in data set [2], in data set [3] and in data set [5] was “Non-Toxic” throughout. Besides, the inhibition entry in data set [4] is “Active”.
